Here are results for 16 compounds from US12590099B2, “Inhibitors of histone deacetylase useful for the treatment or prevention of HIV infection” (Merck Sharp & Dohme LLC, priority 2018, dated 2026).

Like-named read-outs stand apart in the source and are kept apart here.

For one experiment, the target named is T1, Recombinant human HDAC1 (Homo sapiens, UniProt Q13547).
T1 construct: FLAG (C); made in house
Briefly: Human HDAC enzyme inhibitor Fluor-de-Lys assay, HDAC1. The experiment is classed as biochemical. In outline: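 Fluor-de-Lys format at room temperature (23° C.): compounds titrated 10-point, 1:3, preincubated with HDAC before substrate addition; HDAC1 run at 0.3 nM enzyme with 20 μM BML-KI104. Developer with excess HDAC inhibitor ends the reaction, and trypsin-liberated AMC fluorescence is the read-out.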

In another experiment the test system is KARN cells (Jurkat 2C4). Briefly: cells. The note with it: Homo sapiens, Jurkat. The experiment is classed as cell-based. In outline:
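Jurkat 2C4 (KARN) cells dosed with test compounds up to 40 μM final, 0.4% DMSO, overnight at 5% CO2; luciferase read by Steady-Glo luminescence after 10 min at room temperature. DMSO set as 0% and 2 μM SAHA as 100% induction; 4-parameter fit of percent activation.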

[1] abbreviates: recombinant human HDAC1, Fluor-de-Lys assay.
Setting [2] is: read-out: Karn EC50 (nM) 0.1% NHS, 0.1% normal human serum, luciferase induction, 100% = 2 μM SAHA.
Where [3] appears, read: read-out: Karn EC50 (nM) 5% NHS, 5% normal human serum, luciferase induction, 100% = 2 μM SAHA.

T1 sequence (Q13547 whole entry): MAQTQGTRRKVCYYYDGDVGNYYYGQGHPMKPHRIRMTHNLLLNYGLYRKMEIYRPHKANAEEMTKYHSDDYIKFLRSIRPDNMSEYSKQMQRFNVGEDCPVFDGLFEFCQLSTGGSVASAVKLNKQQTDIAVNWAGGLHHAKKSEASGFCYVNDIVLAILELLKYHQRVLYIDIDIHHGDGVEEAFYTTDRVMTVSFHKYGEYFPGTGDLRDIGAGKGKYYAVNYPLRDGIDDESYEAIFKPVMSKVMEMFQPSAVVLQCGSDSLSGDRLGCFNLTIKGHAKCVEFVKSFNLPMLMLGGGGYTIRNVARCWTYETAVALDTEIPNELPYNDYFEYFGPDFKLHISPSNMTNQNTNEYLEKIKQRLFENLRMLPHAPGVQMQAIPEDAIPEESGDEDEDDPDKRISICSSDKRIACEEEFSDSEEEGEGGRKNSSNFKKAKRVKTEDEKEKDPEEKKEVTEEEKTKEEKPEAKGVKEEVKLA

For `CCC(=O)CCCCC[C@H](NC(=O)[C@H]1CC12CN(C)C2)c1ncc(-c2cc3ccc(C)nc3cc2OC)o1` (single isomer, unassigned) [Compound 230], the IC50 at Recombinant human HDAC1 (setting [1]) came out at 0.0004 µM. The EC50 with KARN cells (Jurkat 2C4) (setting [2]) was found to be 88 nM; in the experiment on KARN cells (Jurkat 2C4) (setting [3]) it was 83 nM.

In the case of `CCC(=O)CCCCC[C@H](NC(=O)[C@@H]1CC12CN(C)C2)c1ncc(-c2cc3ccc(C)nc3cc2OC)o1` (single isomer, unassigned) [Compound 231], on Recombinant human HDAC1 (setting [1]), the IC50 was 0.00126 µM. The results for the EC50 with KARN cells (Jurkat 2C4) (setting [2]) and in the experiment on KARN cells (Jurkat 2C4) (setting [3]) were 589 nM and 535 nM, respectively.

`CCC(=O)CCCCC[C@H](NC(=O)[C@H]1CC12CCN(C(C)C)CC2)c1ncc(-c2cc3ccccc3nc2OC)o1` [Compound 99]: on Recombinant human HDAC1, the IC50 is 0.00355 µM. Further, the EC50 is 162 nM in the experiment on KARN cells (Jurkat 2C4) (read-out: Karn EC50 (nM) 0.1% NHS, 0.1% normal human serum) and 310 nM in the experiment on KARN cells (Jurkat 2C4) (read-out: Karn EC50 (nM) 5% NHS, 5% normal human serum).

As to `CCC(=O)CCCCC[C@H](NC(=O)C1CC12CCN(CC)CC2)c1nc(-c2ccc(F)cc2)[nH]c1-c1cnn(C)c1` (stereo partly drawn) [Compound 248], on Recombinant human HDAC1 (setting [1]), the IC50 was 0.00584 µM. The EC50 is 183 nM with KARN cells (Jurkat 2C4) (setting [2]) and 429 nM in the experiment with KARN cells (Jurkat 2C4) (setting [3]).

Turning to `CCC(=O)CCCCC[C@H](NC(=O)C1CC12CCN(CC)CC2)c1nc(-c2ccc(F)cc2)[nH]c1-c1ccsc1` (stereo partly drawn) [Compound 250], at Recombinant human HDAC1 (setting [1]), the IC50 amounted to 0.0807 µM. The concentration for a half-maximal effect (EC50) in the experiment with KARN cells (Jurkat 2C4) (setting [2]) is 3730 nM; in the experiment on KARN cells (Jurkat 2C4) (setting [3]), 4100 nM.

Regarding `CCC(=O)CCCCC[C@H](NC(=O)[C@H]1CC12CCN(C)CC2)c1ncc(-c2cnc(-n3cc(C)cn3)nc2)[nH]1` [Compound 257], on Recombinant human HDAC1 (setting [1]), the IC50 is 0.0648 µM. Besides, the EC50 in the experiment with KARN cells (Jurkat 2C4) (setting [2]) amounted to 8080 nM; with KARN cells (Jurkat 2C4) (setting [3]) it was 10600 nM.

On to `CCC(=O)CCCCC[C@H](NC(=O)[C@H]1CC12CCN(C)CC2)c1ncc(-c2ccc(C(=O)NC3CCOC3)cc2)[nH]1` (stereo partly drawn) [Compound 258], for which, on Recombinant human HDAC1 (setting [1]), the IC50 is 0.00782 µM. Further, the EC50 with KARN cells (Jurkat 2C4) (setting [2]) worked out at 7440 nM; in the experiment on KARN cells (Jurkat 2C4) (setting [3]), 7840 nM.

As to `CCC(=O)CCCCC[C@H](NC(=O)[C@H]1CC12CCN(C)CC2)c1ncc(-c2cnc3cccnc3c2)[nH]1` [Compound 259], on Recombinant human HDAC1 (setting [1]), the 50% inhibitory concentration (IC50) worked out at 0.0238 µM. Also, the EC50 worked out at 7930 nM in the experiment with KARN cells (Jurkat 2C4) (setting [2]) and 8180 nM in the experiment on KARN cells (Jurkat 2C4) (setting [3]).

Consider `CCC(=O)CCCCC[C@H](NC(=O)[C@H]1CC12CCN(C)CC2)c1ncc(-c2ccc(-n3nc(C)cc3C)cc2)[nH]1` [Compound 260], for which, at Recombinant human HDAC1 (setting [1]), the IC50 turned out to be 0.0131 µM. Further, the EC50 came out at 717 nM in the experiment on KARN cells (Jurkat 2C4) (setting [2]) and 913 nM in the experiment on KARN cells (Jurkat 2C4) (setting [3]).

As for `CCC(=O)CCCCC[C@H](NC(=O)[C@H]1CC12CCN(C)CC2)c1ncc(-c2ccnc(N3CCOCC3)c2F)[nH]1` [Compound 261], the IC50 on Recombinant human HDAC1 (setting [1]) turned out to be 0.0252 µM. In addition, the concentration giving a half-maximal response (EC50) was 1380 nM with KARN cells (Jurkat 2C4) (setting [2]) and 1500 nM in the experiment on KARN cells (Jurkat 2C4) (setting [3]).

As to `CCC(=O)CCCCC[C@H](NC(=O)[C@H]1CC12CCN(C)CC2)c1ncc(-c2ccc(-c3cccnc3)nc2)[nH]1` [Compound 262], the IC50 on Recombinant human HDAC1 (setting [1]) was found to be 0.00442 µM. The concentration for a half-maximal effect (EC50) with KARN cells (Jurkat 2C4) (setting [2]) was determined as 773 nM; with KARN cells (Jurkat 2C4) (setting [3]), 851 nM.

`CCC(=O)CCCCC[C@H](NC(=O)[C@H]1CC12CCN(C)CC2)c1ncc(-c2cn(C)c3ccccc23)[nH]1` [Compound 264]: the IC50 on Recombinant human HDAC1 (setting [1]) worked out at 0.00179 µM. Further, the EC50 with KARN cells (Jurkat 2C4) (setting [2]) is 78 nM; in the experiment with KARN cells (Jurkat 2C4) (setting [3]), 143 nM.

In the case of `CCOc1ncc(-c2cnc([C@H](CCCCCC(=O)CC)NC(=O)[C@H]3CC34CCN(C)CC4)[nH]2)cn1` [Compound 266], on Recombinant human HDAC1 (setting [1]), the IC50 turned out to be 0.155 µM. Moreover, the EC50 with KARN cells (Jurkat 2C4) (setting [2]) worked out at 9900 nM; with KARN cells (Jurkat 2C4) (setting [3]), 13800 nM.

In the case of `CCC(=O)CCCCC[C@H](NC(=O)[C@H]1CC12CCN(C)CC2)c1ncc(-c2ccc(C)nc2OC)[nH]1` [Compound 268], the IC50 at Recombinant human HDAC1 (setting [1]) was determined as 0.00389 µM. The 50% effective concentration (EC50) came to 205 nM with KARN cells (Jurkat 2C4) (setting [2]) and 330 nM in the experiment with KARN cells (Jurkat 2C4) (setting [3]).

For `CCC(=O)CCCCC[C@H](NC(=O)[C@@H]1CC12CCN(C)CC2)c1nnc(-c2cc3ccccc3nc2OC)o1` [Compound 305], the IC50 on Recombinant human HDAC1 (setting [1]) was 0.0473 µM. The EC50 with KARN cells (Jurkat 2C4) (setting [2]) came out at 2200 nM; in the experiment on KARN cells (Jurkat 2C4) (setting [3]), 3090 nM.

As to `CCC(=O)CCCCC[C@H](NC(=O)[C@H]1CC12CCN(C)CC2)c1nnc(-c2cc3ccccc3nc2OC)o1` [Compound 306], the IC50 at Recombinant human HDAC1 (setting [1]) came out at 0.0129 µM. Besides, the results for the concentration for a half-maximal effect (EC50) in the experiment on KARN cells (Jurkat 2C4) (setting [2]) and in the experiment with KARN cells (Jurkat 2C4) (setting [3]) were 690 nM and 691 nM, respectively.

What is called IC50 is the point on the concentration scale where inhibition reaches its midpoint. As a reminder, the EC50 is the concentration giving half of the maximal effect.
